Assay results as given in patent US20220168295A1, “RIMEGEPANT FOR CGRP RELATED DISORDERS” (Biohaven Pharmaceutical Ireland DAC, priority 2018, published 2022).

Test system: subjects with Acute Migraines
Assay: Study 302 (BHV3000-302) Phase 3 placebo-controlled trial, rimegepant 75 mg tablet, acute treatment of migraine: efficacy and safety
Type: in vivo, human
Description: Clinical Trial—BHV3000-302: Phase 3: Double-Blind, Randomized, Placebo-Controlled, Safety and Efficacy Trial of BHV-3000 (Rimegepant) for the Acute Treatment of Migraine (ClinicalTrials.gov Identifier: NCT03237845) A phase 3 clinical study was conducted with 1503 participants, as follows. The purpose of this study is to compare the efficacy of BHV-3000 (rimegepant) versus placebo in subjects with Acute Migraines • Study Type: Interventional (Clinical Trial) • Actual Enrollment: 1503 participants • Allocation: Randomized • Intervention Model: Parallel Assignment • Intervention Model Description: Double-blind to Sponsor, Investigator and Subject • Masking: Triple (Participant, Care Provider, Investigator) • Masking Description: Double-blind to Sponsor, Investigator and Subject • Primary Purpose: Treatment • Official Title: BHV3000-302: Phase 3: Double-Blind, Randomized, Placebo-Controlled, Safety and Efficacy Trial of BHV-3000 (Rimegepant) for the Acute Treatment of Migraine • Actual Study Start Date: Jul. 26, 2017 • Primary Completion Date: Jan. 25, 2018 • Study Completion Date: Jan. 31, 2018 [table] • 1. Pain Freedom of rimegepant (75 mg tablet) compared with placebo in the acute treatment of migraine will be measured using the number of evaluable subjects that report no pain at 2 hours post-dose. [Time Frame: Two hours post dose] • Pain will be measured on a 4 point Likert scale (0=none, 1=mild, 2=moderate, 3=severe) • 2. Freedom from the most bothersome symptom (MBS) of rimegepant (75 mg tablet) compared with placebo will be measured using the number of evaluable subjects that report the absence of their MBS at 2 hours post-dose. [Time Frame: Two hours post dose] • The MBS (nausea, phonophobia or photophobia) will measured using a binary scale (0=absent, 1=present). • 1. […] [Time Frame: 2 hours −24 hours post-dose] • Sustained Pain Freedom as measured by a 4 point numeric rating scale (None, Mild, Moderate, Severe) • 2. Rimegepant (75 mg tablet) compared to placebo by tabulating the number of subjects that report the absence of photophobia at 2 hours post-dose in the subset of subjects that reported the presence of photophobia at headache baseline. [Time Frame: 2 hours post-dose] • Freedom from Photophobia • 3. Rimegepant (75 mg tablet) compared to placebo by tabulating the number of subjects that report the absence of phonophobia at 2 hours post-dose in the subset of subjects that reported the presence of phonophobia at headache baseline. [Time Frame: 2 hours post-dose] • Freedom from Phonophobia • 4. To measure rimegepant (75 mg tablet) compared to placebo on Pain Relief, at 2 hours post-dose, that report a pain level of moderate or severe at baseline and then report a pain level of none or mild. [Time Frame: 2 hours post-dose] • Pain Relief as measured by a 4 point numeric rating scale (None, Mild, Moderate, Severe) • 5. Freedom from Nausea will by tabulating the number of subjects that report the absence of nausea at 2 hours post-dose in the subset of subjects that reported the presence of nausea at headache baseline. [Time Frame: 2 hours post-dose] • Freedom from Nausea • 6. To measure rimegepant (75 mg tablet) compared to placebo on the probability of requiring rescue medication will be assessed using the number of subjects that take rescue medication within […] administration of study medication (BHV3000 or placebo). [Time Frame: up to 24 hours post-dose] • Requiring Rescue Medication • 7. […] [Time Frame: 2 hours-48 hours post-dose] • Sustained Pain Freedom as measured by a 4 point numeric rating scale (None, Mild, Moderate, Severe) • 8. […] [Time Frame: 2 hours-24 hours post-dose] • Sustained Pain Relief as measured by a 4 point numeric rating scale (None, Mild, Moderate, Severe) • 9. […] [Time Frame: 2 hours-48 hours post-dose] • Sustained Pain Relief as measured by a 4 point numeric rating scale (None, Mild, Moderate, Severe) • 10. […]

N[C@@H]1c2cccnc2[C@H](OC(=O)N2CCC(n3c(=O)[nH]c4ncccc43)CC2)CC[C@H]1c1cccc(F)c1F [Rimegepant, [(5S,6S,9R)-5-amino-6-(2,3-difluorophenyl)-6,7,8,9-tetrahydro-5H-cyclohepta[b]pyridin-9-yl] 4-(2-oxo-3H-imidazo[4,5-b]pyridin-1-yl)piperidine-1-carboxylate]
SAEs related to the study drug: No SAEs were determined to be related to the study drug | Transaminase level greater than 3 times ULN, subjects: No subject | Adverse event urinary tract infection, incidence (8/543): 1.5% | Adverse event nausea, incidence (10/543): 1.8% | Serum ALT or AST levels greater than ULN, subjects (13/543): 2.4% | Proportion of patients achieving normal function at 2 hours (functional disability) versus placebo (P<0.0001): greater proportion | Serious AEs (SAEs), number of subjects (back pain): 1 subject
